For series [1], the system named is Male albino Sprague-Dawley rats. Nature of the series: Rat Social Interaction Test (SIT). Format: in vivo. The note with it: for overall profile in the Social Interaction Test (conclusion in words): rat, in vivo. As to the method: Rats were allowed to acclimate to the animal care facility for 5 days and were housed singly for 5 days prior to testing. Animals were handled for 5 minutes per day. The design and procedure for the Social Interaction Test was carried out as previously described by Kennett, et al. (1997). On the test day, weight matched pairs of rats (±5%), unfamiliar to each other, were given identical treatments and returned to their home cages. Animals were randomly divided into 5 treatment groups, with 5 pairs per group, and were given one of the following i.p. treatments: Example 92 (10, 30 or 100 mg/kg), vehicle (1 ml/kg) or chlordiazepoxide (5 mg/kg). Dosing was 1 hour prior to testing. Rats were subsequently placed in a white perspex test box or arena (54×37×26 cm), whose floor was divided up into 24 equal squares, for 15 minutes. An air conditioner was used to generate background noise and to keep the room at approximately 74° F. All sessions were videotaped using a JVC camcorder (model GR-SZ1, Elmwood Park, N.J.) with either TDK (HG ultimate brand) or Sony 30 minute videocassettes. All sessions were conducted between 1:00-4:30 P.M. Active social interaction, defined as grooming, sniffing, biting, boxing, wrestling, following and crawling over or under, was scored using a stopwatch (Sportsline model no. 226, 1/100 sec. discriminability). The number of episodes of rearing (animal completely raises up its body on its hind limbs), grooming (licking, biting, scratching of body), and face washing (i.e. hands are moved repeatedly over face), and number of squares crossed were scored. Passive social interaction (animals are lying beside or on top of each other) was not scored. All behaviors were assessed later by an observer who was blind as to the treatment of each pair. At the end.of each test, the box was thoroughly wiped with moistened paper towels.
Male albino Sprague-Dawley rats (Taconic Farms, N.Y.) were housed in pairs under a 12 hr light dark cycle (lights on at 0700 hrs.) with free access to food and water.
Example 92 was dissolved in 100% DMSO (Sigma Chemical Co., St. Louis, Mo.). Chlordiazepoxide (purchased from Sigma Chemical Co., St. Louis, Mo.) was dissolved in double distilled water. The vehicle consisted of 50% DMSO (v/v). All drug solutions were made up 10 minutes prior to injection and the solutions were discarded.
Example 34 was dissolved in 5% lactic acid, v/v. The vehicle consisted of 100% dimethylacetamide (DMA) and this was used to make up all drug solutions. All drug solutions were made up fresh each day and any unused solutions were discarded at the end of the test day. The volume of drug solution administered was 1 ml/kg.
The social interaction data (time interacting, rearing and squares crossed) were subjected to a randomized, one-way ANOVA and post hoc tests conducted using the Student-Newman-Keuls test. The data were subjected to a test of normality (Shapiro-Wilk test). The data were analyzed using the GBSTAT program, version 6.5 (Dynamics Microsystems, Inc., Silver Spring, Md., 1997). All data are presented as means ±S.E.M.

Series [2] addresses T1, human α1D adrenergic receptor (Homo sapiens, UniProt P25100).
T1 construct: expressed in transfected cells
Nature of the series: Binding at human α1D adrenergic receptor. The note with it: read-out: hα1D Ki. From the text: (§1) Other receptors: Cell membranes expressing human dopamine D1, D2, D4 and rat D3 receptors were purchased through BioSignal, Inc. (Montreal, Canada). Binding assays using the histamine H1 receptor; dopamine receptors; and α1A, α1B, and α2 adrenergic receptors may be carried out according to the procedures described in U.S. Pat. No. 5,780,485, the disclosure of which is hereby incorporated by reference in its entirety into this application. Binding assays using the dopamine D5 receptor may be carried out according to the procedures described in U.S. Pat. No. 5,882,855, the disclosure of which is hereby incorporated by reference in its entirety into this application. Binding assays for the human α1D adrenergic receptor may be carried out according to the procedures described in U.S. Pat. No. 6,156,518, the disclosure of which is hereby incorporated by reference in its entirety into this application.
(§2) Binding data were analyzed using nonlinear regression and statistical techniques available in the GraphPAD Prism package (San Diego, Calif.). Enzymatic assay data were derived from a standard curve of reference compound data.

Series [3] addresses T2, human 5HT1B receptor (Homo sapiens, UniProt P28222).
T2 construct: expressed in transfected cells
In words: Radioligand binding at human 5HT1B receptor. The note with it: read-out: h5HT1B Ki. As to the method:
(§3) Human 5HT1B, 5HT1D, 5HT1E, 5HT1F, and 5HT7 ReceDtors: The cell lysates of LM(tk-) clonal cell line stably transfected with the genes encoding each of these 5HT receptor-subtypes were prepared as described above. Cell membranes were suspended in 50 mM Tris-HCl buffer (pH 7.4 at 37° C.) containing 10 mM MgCl2, 0.2 mM EDTA, 10 µM pargyline, and 0.1% ascorbate. […] Nonspecific binding was determined in the presence of 10 μM serotonin. The bound radioligand was separated by filtration through GF/B filters using a cell harvester.
as §2

Series [4] has as its target T3, human 5HT1F receptor (Homo sapiens, UniProt P30939).
T3 construct: expressed in transfected cells
Nature of the series: Radioligand binding at human 5HT1F receptor. The note with it: read-out: h5HT1F Ki. The protocol:
as §3, §2

Series [5] addresses T4, human 5HT1E receptor (Homo sapiens, UniProt P28566).
T4 construct: expressed in transfected cells
In words: Radioligand binding at human 5HT1E receptor. To be noted: read-out: h5HT1E Ki. As to the method:
as §3, §2

Series [6] addresses T5, human dopamine D5 receptor (Homo sapiens, UniProt P21918).
T5 construct: expressed in transfected cells
In words: Binding at dopamine D5 receptor. The note with it: read-out: hD5 Ki.
Text: as §1, §2

In series [7] the target is T6, 5HT transporter (Rattus norvegicus, UniProt P31652).
T6 construct: native, tissue-derived transporters; from tissue
T6 sequence (P31652 whole entry): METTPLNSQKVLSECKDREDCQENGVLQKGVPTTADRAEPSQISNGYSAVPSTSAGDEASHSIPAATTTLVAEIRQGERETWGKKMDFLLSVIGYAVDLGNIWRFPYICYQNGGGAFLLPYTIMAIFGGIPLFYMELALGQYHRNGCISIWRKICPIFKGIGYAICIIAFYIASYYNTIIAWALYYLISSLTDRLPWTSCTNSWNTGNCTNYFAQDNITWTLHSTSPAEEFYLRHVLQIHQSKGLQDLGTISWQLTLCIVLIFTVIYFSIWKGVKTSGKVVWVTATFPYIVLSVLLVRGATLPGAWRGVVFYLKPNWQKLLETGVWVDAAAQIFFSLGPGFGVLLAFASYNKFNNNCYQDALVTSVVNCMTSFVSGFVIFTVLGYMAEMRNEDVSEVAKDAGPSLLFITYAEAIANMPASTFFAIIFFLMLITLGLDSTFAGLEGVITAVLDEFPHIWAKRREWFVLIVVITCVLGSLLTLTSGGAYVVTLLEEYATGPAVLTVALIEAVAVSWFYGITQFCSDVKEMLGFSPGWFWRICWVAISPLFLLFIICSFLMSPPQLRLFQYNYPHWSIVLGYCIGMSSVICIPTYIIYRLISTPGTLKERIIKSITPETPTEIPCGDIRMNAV
In words: Binding at native 5HT transporter. To be noted: read-out: r5HT Uptk Ki. As to the method:
The methods to determine binding affinity at native transporters are described in the following publications: 5HT transporter and NE transporter (Owens et al., 1997), and DA transporter (Javitch et al, 1984).
as §2

T3 sequence (P30939 whole entry): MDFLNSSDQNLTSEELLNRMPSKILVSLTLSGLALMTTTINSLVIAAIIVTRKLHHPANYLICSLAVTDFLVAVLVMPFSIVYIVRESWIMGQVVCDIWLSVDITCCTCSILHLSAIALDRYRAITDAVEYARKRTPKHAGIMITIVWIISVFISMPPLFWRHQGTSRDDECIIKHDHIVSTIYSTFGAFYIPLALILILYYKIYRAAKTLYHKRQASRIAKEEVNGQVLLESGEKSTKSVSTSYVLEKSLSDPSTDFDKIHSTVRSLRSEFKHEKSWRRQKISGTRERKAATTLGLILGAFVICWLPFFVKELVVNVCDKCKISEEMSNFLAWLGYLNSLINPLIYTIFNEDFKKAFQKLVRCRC
T1 sequence (P25100 whole entry): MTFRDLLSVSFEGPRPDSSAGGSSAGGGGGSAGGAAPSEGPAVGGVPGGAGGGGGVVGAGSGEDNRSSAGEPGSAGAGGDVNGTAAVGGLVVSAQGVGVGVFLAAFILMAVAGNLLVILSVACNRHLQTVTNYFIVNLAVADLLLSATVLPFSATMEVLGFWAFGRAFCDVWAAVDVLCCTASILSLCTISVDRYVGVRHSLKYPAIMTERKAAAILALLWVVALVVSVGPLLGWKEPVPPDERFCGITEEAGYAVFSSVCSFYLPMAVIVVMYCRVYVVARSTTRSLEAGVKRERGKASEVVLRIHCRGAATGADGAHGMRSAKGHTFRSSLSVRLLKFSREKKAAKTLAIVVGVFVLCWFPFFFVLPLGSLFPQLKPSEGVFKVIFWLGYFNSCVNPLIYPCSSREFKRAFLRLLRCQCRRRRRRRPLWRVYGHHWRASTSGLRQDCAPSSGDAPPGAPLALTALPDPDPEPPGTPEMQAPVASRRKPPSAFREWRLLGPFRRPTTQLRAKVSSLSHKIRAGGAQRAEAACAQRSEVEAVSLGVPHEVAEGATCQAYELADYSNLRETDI
T5 sequence (P21918 whole entry): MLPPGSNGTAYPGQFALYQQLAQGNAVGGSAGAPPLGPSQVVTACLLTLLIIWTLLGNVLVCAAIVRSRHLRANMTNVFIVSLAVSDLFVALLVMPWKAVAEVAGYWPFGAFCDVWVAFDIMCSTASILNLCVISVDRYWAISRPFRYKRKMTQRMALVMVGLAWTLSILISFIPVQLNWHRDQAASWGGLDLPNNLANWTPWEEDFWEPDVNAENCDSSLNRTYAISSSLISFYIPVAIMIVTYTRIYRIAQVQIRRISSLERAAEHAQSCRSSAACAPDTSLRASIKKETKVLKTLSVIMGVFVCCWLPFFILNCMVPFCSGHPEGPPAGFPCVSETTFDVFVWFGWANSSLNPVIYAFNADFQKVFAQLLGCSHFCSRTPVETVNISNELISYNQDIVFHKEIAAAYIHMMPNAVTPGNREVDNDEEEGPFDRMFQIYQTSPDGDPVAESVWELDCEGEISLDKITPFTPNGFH
T2 sequence (P28222 whole entry): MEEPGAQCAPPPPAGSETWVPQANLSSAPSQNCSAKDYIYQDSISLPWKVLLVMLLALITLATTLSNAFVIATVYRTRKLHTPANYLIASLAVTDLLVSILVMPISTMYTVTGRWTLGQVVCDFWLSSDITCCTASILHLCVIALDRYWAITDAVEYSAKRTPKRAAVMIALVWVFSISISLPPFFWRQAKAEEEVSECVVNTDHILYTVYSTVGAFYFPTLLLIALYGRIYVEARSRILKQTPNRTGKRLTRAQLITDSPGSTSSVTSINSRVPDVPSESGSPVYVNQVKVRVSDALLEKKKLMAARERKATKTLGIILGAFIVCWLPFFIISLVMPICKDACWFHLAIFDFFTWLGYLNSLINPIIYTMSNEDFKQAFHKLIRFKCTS
T4 sequence (P28566 whole entry): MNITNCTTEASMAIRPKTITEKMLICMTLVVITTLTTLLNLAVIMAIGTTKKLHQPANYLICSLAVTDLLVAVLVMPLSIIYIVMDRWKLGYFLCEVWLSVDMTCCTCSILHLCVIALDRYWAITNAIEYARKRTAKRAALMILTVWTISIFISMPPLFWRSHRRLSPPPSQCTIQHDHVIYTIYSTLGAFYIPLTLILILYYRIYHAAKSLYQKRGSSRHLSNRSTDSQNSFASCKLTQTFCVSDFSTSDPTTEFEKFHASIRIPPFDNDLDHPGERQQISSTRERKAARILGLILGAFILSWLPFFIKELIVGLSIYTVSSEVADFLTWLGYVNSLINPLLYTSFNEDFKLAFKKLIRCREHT

`Cc1ccc(Nc2cc(N3CCCCC3)nc(N3CCN(c4ncccc4C(F)(F)F)CC3)n2)cc1` [Example 34]: the “overall profile in the Social Interaction Test (conclusion in words)” value in series [1] is on record as “produces an anxiolytic-like action in the social interaction test”.
In the case of `O=C1C(=Nc2cccc(C(F)(F)F)c2)c2ccccc2N1c1ccccc1` [Example 92, 1-PHENYL-3-[[3-(TRIFLUOROMETHYL)PHENYL]IMINO]-1,3-DIHYDRO-2H-INDOL-2-ONE], the inhibition constant Ki (as a rule, the dissociation constant of the complex between target and ligand, obtained from inhibition or displacement) in series [2] worked out at 17.2 µM; in series [3], 11.3 µM; in series [4] it was 5.29 µM; in series [5], 18.9 µM; in series [6], 29.3 µM; in series [7] it was 45.1 µM. The “ataxia or sedation accompanying decreased locomotor activity” value in series [1] (100 mg/kg i.p.) is on record as “did not appear to be accompanied by ataxia or sedation”. Further, the “social interaction of familiar cage mates” value in series [1] (familiar cage mates, another study (not reported)) is on record as “no significant increase in interaction”. The “stereotypes or aggressive behaviors” value in series [1] (i.p., Social Interaction Test) is on record as “did not elicit stereotypes or produce aggressive behaviors”. The “overall profile in the Social Interaction Test (conclusion in words)” value in series [1] is “has the profile of an anxiolytic-like drug in the Social Interaction Test”.

The record behind these values is patent US20040110821A1, “GAL3 receptor antagonists for the treatment of affective disorders” (priority 2002, published 2004).
